Source: patent publication US20260327234A1, “NOVEL COMPOUNDS AS CYP11A1 INHIBITORS AND METHODS OF USE THEREOF” (Shenzhen Ionova Life Science Co., Ltd., priority 2023, published 2026)

How the values were obtained:
[1] = target: T1, testosterone (T) production in NCI-H295R cells (Homo sapiens, UniProt P05108); test: H295R Steroid Biosynthesis Inhibition Assay - inhibition of testosterone (T) production in NCI-H295R cells; assay type: cell-based; conditions: 48 h, LC-MS/MS, read-out: Inh. of T IC50
T1 construct: testosterone measured by LC-MS/MS as downstream steroid
T1 sequence (P05108 40-521): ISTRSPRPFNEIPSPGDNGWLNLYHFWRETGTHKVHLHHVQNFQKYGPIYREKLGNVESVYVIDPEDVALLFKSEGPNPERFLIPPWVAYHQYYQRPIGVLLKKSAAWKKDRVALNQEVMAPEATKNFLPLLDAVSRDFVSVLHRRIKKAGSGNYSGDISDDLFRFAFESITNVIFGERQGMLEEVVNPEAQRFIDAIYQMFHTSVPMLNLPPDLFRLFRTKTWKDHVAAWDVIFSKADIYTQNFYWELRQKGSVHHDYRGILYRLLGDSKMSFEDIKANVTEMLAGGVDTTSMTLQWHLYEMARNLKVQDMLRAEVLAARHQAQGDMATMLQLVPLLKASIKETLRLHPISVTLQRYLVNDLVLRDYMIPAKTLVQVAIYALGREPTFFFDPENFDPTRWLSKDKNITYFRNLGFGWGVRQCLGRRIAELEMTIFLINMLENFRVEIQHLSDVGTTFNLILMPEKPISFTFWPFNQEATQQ
Description: (§1) Steroid Biosynthesis Inhibition by test compounds in NCI-H295R cells (ATCC) was studied by measuring the cellular production of pregnenolone (P) catalyzed by CYP11A1 and the downstream steroid, testosterone (T). Cells were cultured in Dulbecco's modified eagle's medium F12 (DMEM/F12) with phenol red (Gibco, Cat. No. 11330032) supplemented with 2% UltroserG (Pall, Cat. No. 15950-017, USA), 1% ITS-Premix and 1% penicillin and streptomycin (Hyclone, Cat. No. SV30010, USA). Prior to the assay, cells were thawed and passed 4 times. The maximal passage number used for the assay was 10. For this assay, DMEM/F12 without phenol red supplemented with 10% charcoal-stripped fetal bovine serum (VivaCell, Cat. No. C3830-0500, USA) were used. In a 96-well plate, 60,000 cells/well were plated (90 μL/well) and incubated for 24 h. Test compounds, diluted in a serial dilution ranging from 1000 nM to 0.15 nM in the assay medium, were added to the plate. After 48 h of incubation, solution from each well were collected and transferred to individual 1.5 mL centrifuge tubes, and then 5 ng/mL deuterated testosterone (D3-testosterone) and 50 ng/mL deuterated pregnenolone (D4-pregnenolone) in 200 μL acetonitrile were added. After vigorously mixing for 5 min, the mixture was centrifuged at 12,700 rpm for 15 min. An aliquot of 250 μL supernatant was collected and dried under N2 stream. After addition of 150 μL Methanol:water (1:1, v/v) to the dried product, 50 μL sample of this solution was injected into the LC-MS/MS system for analysis.
(§2) The half-maximal inhibitory concentration (IC50) for steroid biosynthesis inhibition was determined by curve-fitting with the 4-variable inhibitory dose response equation using GraphPad Prism software.
(§3) Testosterone and pregnenolone were analyzed using Shimadzu LC30AD HPLC system (Shimadzu, Kyoto, Japan) coupled with AB SCIEX Qtrap 5500 triple quadrupole mass spectrometer (AB Sciex, Framingham, MA, USA) via ESI interface in the positive ionization mode. An ACQUITY UPLC BEH Shield RP18 column (1.7 μm, 2.1×50 mm, Milford, MA, USA) maintained at 40° C. was used to separate analytes and IS form the sample matrix.
(§4) The mobile phase was a mixture of 10 mM ammonium acetate in water containing 0.2% formic acid (A) and methanol containing 0.2% formic acid (B) at a flow rate of 0.6 mL/min. The gradient program was set as follows: from 0 min to 0.5 min, 60% B; from 0.5 min to 3.5 min, 90% B; from 3.5 min to 4.5 min, 90% B; from 4.51 min to 5.0 min, 60% B. The injection volume was […].
(§5) The MS/MS parameters were set as follows: ion spray voltage, 5500 V; curtain gas, 35 psi; Gas 1, 55 psi; Gas 2: 55 psi; temperature, […]. The optimized multiple reaction monitoring (MRM) fragmentation transitions and MS parameters of each analyte are summarized in Table 1.

CYP11A1 = target: T2, CYP11A1 (Homo sapiens, UniProt P05108); test: H295R Steroid Biosynthesis Inhibition Assay - inhibition of pregnenolone (P) production catalyzed by CYP11A1 in NCI-H295R cells; assay type: cell-based; conditions: 48 h, LC-MS/MS, read-out: Inh. of P IC50
T2 construct: measuring the cellular production of pregnenolone (P) catalyzed by CYP11A1; host or cells: NCI-H295R
T2 sequence (P05108 40-521): T1 sequence (P05108 40-521)
Description: as §1, §2, §3, §4, §5

Row | SMILES | IC50 [1] [nM] | IC50 (CYP11A1) [nM]
1 | NC(=O)[C@H]1CC[C@H](c2cc3oc(CN4Cc5ccccc5C4)cc(=O)c3o2)CC1 [Compound 46] | ≤ 40 | ≤ 40
2 | CN(C)C(=O)[C@H]1CC[C@H](c2cc3oc(CN4Cc5ccccc5C4)cc(=O)c3o2)CC1 [Compound 47] | ≤ 40 | ≤ 40
3 | N#C[C@H]1CC[C@H](c2cc3oc(CN4Cc5ccccc5C4)cc(=O)c3o2)CC1 [Compound 48] | 41 to 100 | ≤ 40
4 | CS(=O)(=O)c1ccc(-c2cc3oc(CN4Cc5ccccc5C4)cc(=O)c3o2)cc1 [Compound 49] | ≤ 40 | ≤ 40
5 | CP(C)(=O)c1ccc(-c2cc3oc(CN4Cc5ccccc5C4)cc(=O)c3o2)cc1 [Compound 50] | ≥ 101 | ≥ 100
6 | CNS(=O)(=O)c1ccc(-c2cc3oc(CN4Cc5ccccc5C4)cc(=O)c3o2)cc1 [Compound 51] | ≤ 40 | ≤ 40
7 | CS(=O)(=O)Nc1ccc(-c2cc3oc(CN4Cc5ccccc5C4)cc(=O)c3o2)cc1 [Compound 52] | ≤ 40 | ≤ 40
8 | CS(=O)(=O)N1C[C@@H]2[C@H](C1)[C@H]2c1cc2oc(CN3CCn4cccc4C3)cc(=O)c2o1 [Compound 53] | 41 to 100 | 40 to 100
9 | O=c1cc(CN2CCn3cccc3C2)oc2cc([C@H]3CC[C@H](O)CC3)oc12 [Compound 54] | 41 to 100 | ≤ 40
10 | CS(=O)(=O)N1CCC(c2ccc3oc(CN4Cc5ccccc5C4)cc(=O)c3c2)CC1 [Compound 57] | ≤ 40 | ≤ 40
11 | CS(=O)(=O)N1CCC(c2ccc3oc(CN4Cc5ccccc5C4)cc(=O)c3n2)CC1 [Compound 58] | ≤ 40 | ≤ 40
12 | CS(=O)(=O)N1CCC(c2ccc3nc(CN4Cc5ccccc5C4)cc(=O)n3c2)CC1 [Compound 59] | ≤ 40 | ≤ 40
13 | CS(=O)(=O)N1CCC(c2cc(=O)c3cc(CN4Cc5ccccc5C4)ccc3o2)CC1 [Compound 60] | ≤ 40 | ≤ 40
14 | CS(=O)(=O)N1CCC(c2cc(=O)c3nc(CN4Cc5ccccc5C4)ccc3o2)CC1 [Compound 61] | ≥ 101 | ≥ 100
15 | CS(=O)(=O)N1CCC(N2CCc3cc(CN4Cc5ccccc5C4)ccc3C2=O)CC1 [Compound 64] | 41 to 100 | ≤ 40
16 | CS(=O)(=O)N1CC=C(c2coc3cc(CN4Cc5ccccc5C4)ccc3c2=O)CC1 [Compound 65] | ≤ 40 | ≤ 40
17 | CS(=O)(=O)N1CCC(c2ccc3cc(CN4Cc5ccccc5C4)ncc3c2)CC1 [Compound 68] | ≤ 40 | ≤ 40
18 | OC1CCN(c2ccc3cc(CN4Cc5ccccc5C4)ccc3n2)CC1 [Compound 74] | ≥ 101 | ≥ 100
19 | CS(=O)(=O)N1CCC(c2ccc3cc(CN4CCn5cccc5C4)ccc3n2)CC1 [Compound 76] | ≥ 101 | 40 to 100
20 | CS(=O)(=O)N1CCC(c2cnc3cc(CN4Cc5ccccc5C4)cnc3c2)CC1 [Compound 80] | ≤ 40 | ≤ 40
21 | CS(=O)(=O)N1CC=C(c2ccc3nc(CN4Cc5ccccc5C4)cnc3c2)CC1 [Compound 81] | 41 to 100 | ≤ 40
22 | Cc1nc(C2CCN(S(C)(=O)=O)CC2)nc2ccc(CN3CCn4cccc4C3)cc12 [Compound 84] | ≥ 101 | ≥ 100
23 | CS(=O)(=O)N1C[C@@H]2[C@H](C1)[C@H]2c1cnc2cc(CN3Cc4ccccc4C3)ccc2n1 [Compound 86] | 41 to 100 | ≤ 40
24 | CS(=O)(=O)N1CCC(c2cnc3cc(CN4Cc5ccc(F)cc5C4)ccc3n2)CC1 [Compound 87] | ≤ 40 | ≤ 40
25 | CS(=O)(=O)N1CCC(c2cnc3cc(CN4Cc5ccc(OC(F)F)cc5C4)ccc3n2)CC1 [Compound 89] | ≤ 40 | ≤ 40
26 | CS(=O)(=O)N1CCC(c2cnc3cc(CN4Cc5ccc(C(F)(F)F)cc5C4)ccc3n2)CC1 [Compound 90] | ≤ 40 | ≤ 40
27 | CCCS(=O)(=O)N1CCC(c2cnc3cc(CN4Cc5ccccc5C4)ccc3n2)CC1 [Compound 92] | ≤ 40 | ≤ 40
28 | CCCCS(=O)(=O)N1CCC(c2cnc3cc(CN4Cc5ccccc5C4)ccc3n2)CC1 [Compound 93] | ≤ 40 | ≤ 40

Further lines, results first:

Row | IC50 [1] [nM] | IC50 (CYP11A1) [nM] | SMILES
29 | ≤ 40 | ≤ 40 | CS(=O)(=O)N1CCC(c2cnc3cc(CN4Cc5ccccc5C4)ccc3n2)CC1 [Compound 55, 6-(isoindolin-2-ylmethyl)-2-(1-(methylsulfonyl)piperidin-4-yl)quinoxaline]
30 | ≤ 40 | ≤ 40 | CS(=O)(=O)N1C[C@@H]2[C@H](C1)[C@H]2c1ccc2cc(CN3Cc4ccccc4C3)ccc2n1 [Compound 56, 6-(isoindolin-2-ylmethyl)-2-((1R,5S,6r)-3-(methylsulfonyl)-3-azabicyclo[3.1.0]hexan-6-yl)quinoline]
31 | ≥ 101 | 40 to 100 | CS(=O)(=O)N1CCC(c2cc(=O)n3cc(CN4Cc5ccccc5C4)ccc3n2)CC1 [Compound 62]
32 | ≤ 40 | ≤ 40 | Cn1c(C2CCN(S(C)(=O)=O)CC2)nc2ccc(CN3Cc4ccccc4C3)cc2c1=O [Compound 63]
33 | ≤ 40 | ≤ 40 | CS(=O)(=O)N1CCC(c2ccc3cc(CN4Cc5ccccc5C4)ccc3c2)CC1 [Compound 66]
34 | ≤ 40 | ≤ 40 | CS(=O)(=O)N1CCC(c2ccc3cc(CN4Cc5ccccc5C4)cnc3c2)CC1 [Compound 67]
35 | ≤ 40 | ≤ 40 | CS(=O)(=O)N1CCC(c2cnc3cc(CN4Cc5ccccc5C4)ccc3c2)CC1 [Compound 69]
36 | ≤ 40 | ≤ 40 | CS(=O)(=O)N1CCC(c2ccc3cc(CN4Cc5ccccc5C4)ccc3n2)CC1 [Compound 71]
37 | ≤ 40 | ≤ 40 | CS(=O)(=O)N1CCC(c2ccc3cc(CN4Cc5ccc(F)cc5C4)ccc3n2)CC1 [Compound 72]
38 | ≤ 40 | ≤ 40 | COc1ccc2c(c1)CN(Cc1ccc3nc(C4CCN(S(C)(=O)=O)CC4)ccc3c1)C2 [Compound 73]
39 | ≤ 40 | ≤ 40 | CS(=O)(=O)N1CC2(CC(c3ccc4cc(CN5Cc6ccccc6C5)ccc4n3)C2)C1 [Compound 75]
40 | ≤ 40 | ≤ 40 | CS(=O)(=O)N1CCC(c2cc(Cl)c3cc(CN4Cc5ccccc5C4)ccc3n2)CC1 [Compound 77]
41 | ≤ 40 | ≤ 40 | CS(=O)(=O)N1CCC(c2ccc3cc(CN4Cc5ccccc5C4)cnc3n2)CC1 [Compound 78]
42 | ≤ 40 | ≤ 40 | CS(=O)(=O)N1CCC(c2ccc3nc(CN4Cc5ccccc5C4)ccc3n2)CC1 [Compound 79]
43 | 41 to 100 | ≤ 40 | CS(=O)(=O)N1CCC(c2ncc3cc(CN4Cc5ccccc5C4)ccc3n2)CC1 [Compound 82]
44 | ≤ 40 | ≤ 40 | Cc1nc(C2CCN(S(C)(=O)=O)CC2)nc2ccc(CN3Cc4ccccc4C3)cc12 [Compound 83]
45 | ≤ 40 | ≤ 40 | COc1nc(C2CCN(S(C)(=O)=O)CC2)nc2ccc(CN3Cc4ccccc4C3)cc12 [Compound 85]
46 | ≤ 40 | ≤ 40 | CCS(=O)(=O)N1CCC(c2cnc3cc(CN4Cc5ccccc5C4)ccc3n2)CC1 [Compound 91]
